# Source: patent publication US11999727B2 (Tango Therapeutics, Inc., priority 2020, dated 2024)
# Read-outs that look alike come from different tables or passages of the source.
# Key:
# [1] = biological target: T1, PRMT5 (Homo sapiens, UniProt O14744); assay: PRMT5 biochemical IC50 assay with SAM as cofactor; details: PRMT5, SAM as cofactor; read-out: SAM IC50
# T1 construct: purchased Viva (custom protein)
# [2] = biological target: T1, PRMT5; assay: PRMT5 biochemical IC50 assay with MTA as cofactor; details: PRMT5, MTA as cofactor; read-out: MTA IC50
# [3] = test system: HAP1 MTAP-intact cell line; assay: SDMA in-cell western assay, HAP1 MTAP-intact; format: cell-based; details: HAP1 MTAP-intact, read-out: MTAP HAP1 intact IC50
# Method in brief: (§1)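 Readout: in-cell western detection of SDMA. Cells: HAP1 expressing endogenous MTAP and an MTAP-null HAP1 counterpart. Output: IC50.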
# [4] = test system: HAP1 MTAP-deleted cell line; assay: SDMA in-cell western assay, HAP1 MTAP-deleted; format: cell-based; details: for IC50: HAP1 MTAP-deleted, read-out: HAP 1 MTAP deleted IC50; for MTAP intact/deleted ratio: IC50 ratio HAP1 MTAP-intact / HAP1 MTAP-deleted
# Method in brief: as §1
# [5] = test system: HAP1 MTAP-deleted cell line; assay: Viability assay, MTAP-deleted cell line; format: cell-based; details: HAP1 MTAP-deleted cell line, read-out: HAP1 MTAP deleted viability
# Text: Table 1 additionally indicates IC50 values in a viability assay for the MTAP-deleted cell line (column 10), indicating the effect of treatment with compound on cell survival.
# [6] = biological target: T1, PRMT5; assay: PRMT5 biochemical IC50 assay with no cofactor; details: PRMT5, no cofactor; read-out: No Cofactor/ rel IC50
# Text: Table 1 indicates IC50 values (μM) against PRMT5 for exemplary compounds in the presence of SAM as cofactor, with no cofactor, and with MTA as cofactor, respectively (columns 4-6). […] Ki values can be calculated from the IC50 values as described in the Examples section. As detailed in the Examples section, for the assay performed in the presence of SAM, IC50=Ki×1.5 (Ki=IC50/1.5).
# [7] = Homo sapiens, HAP1, SDMA in-cell western
# T1 sequence (O14744 whole entry): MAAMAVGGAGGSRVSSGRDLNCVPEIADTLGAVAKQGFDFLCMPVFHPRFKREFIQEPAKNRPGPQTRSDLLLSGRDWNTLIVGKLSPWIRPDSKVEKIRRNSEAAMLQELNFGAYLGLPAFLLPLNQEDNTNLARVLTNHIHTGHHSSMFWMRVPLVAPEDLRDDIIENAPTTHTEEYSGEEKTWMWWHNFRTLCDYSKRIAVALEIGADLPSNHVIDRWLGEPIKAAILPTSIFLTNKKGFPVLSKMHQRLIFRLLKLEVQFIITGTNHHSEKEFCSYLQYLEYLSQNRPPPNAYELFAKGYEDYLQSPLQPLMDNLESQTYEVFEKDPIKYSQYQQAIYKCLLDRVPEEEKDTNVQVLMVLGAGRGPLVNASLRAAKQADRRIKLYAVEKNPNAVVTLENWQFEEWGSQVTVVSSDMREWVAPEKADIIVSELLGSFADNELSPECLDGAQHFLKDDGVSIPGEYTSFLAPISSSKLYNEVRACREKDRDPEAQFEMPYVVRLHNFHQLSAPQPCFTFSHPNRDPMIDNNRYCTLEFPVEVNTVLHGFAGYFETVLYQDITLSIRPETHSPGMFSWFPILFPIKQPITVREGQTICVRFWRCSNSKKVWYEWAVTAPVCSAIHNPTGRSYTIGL
# T1 sequence (Q9BQA1 whole entry partner): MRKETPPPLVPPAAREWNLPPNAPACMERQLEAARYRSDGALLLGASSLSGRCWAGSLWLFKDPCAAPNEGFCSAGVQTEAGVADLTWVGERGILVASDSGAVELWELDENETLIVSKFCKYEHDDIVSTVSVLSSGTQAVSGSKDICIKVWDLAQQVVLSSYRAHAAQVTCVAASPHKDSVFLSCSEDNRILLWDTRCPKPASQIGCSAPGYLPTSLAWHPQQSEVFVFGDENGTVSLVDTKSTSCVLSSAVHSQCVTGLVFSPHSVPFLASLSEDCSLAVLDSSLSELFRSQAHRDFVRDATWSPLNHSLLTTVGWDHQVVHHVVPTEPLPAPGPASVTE
SMILES,IC50 [1],IC50 [2],"IC50 [3, 7]","IC50 [4, 7]",IC50 [6],IC50 ([3]; SDMA in-cell western),IC50 ([4]; SDMA in-cell western),"IC50 ([5]; Homo sapiens, HAP1, viability)",MTAP intact/deleted ratio ([4]; SDMA in-cell western),IC50 ([5]; viability)
"COCCc1nc2cc([C@@H]3CC[C@@H](C)CN3C(=O)C(=O)Nc3cnc(N)c(C4CC4)c3)ccc2s1 (single isomer, unassigned) [Compound 1332]",50 to 500 nM,< 50 nM,100 to 1000 nM,< 100 nM,50 to 500 nM,,,< 1000 nM,,
"C[C@@H]1CC[C@@H](c2ccc3cncn3c2)N(C(=O)C(=O)Nc2cnc(N)c(C3CC3)c2)C1 (single isomer, unassigned) [Compound 1336, N-(6-amino-5-cyclopropylpyridin-3-yl)-2-(2-(imidazo[1,5-a]pyridin-6-yl)-5-methylpiperidin-1-yl)-2-oxoacetamide]",> 500 nM,> 500 nM,> 1000 nM,100 to 1000 nM,> 500 nM,,,1000 to 10000 nM,,
"C[C@H]1CC[C@H](c2ccc3sc(C4CCN(C)CC4)nc3c2)N(C(=O)C(=O)Nc2cnc(OC(F)(F)F)c(C(N)=O)c2)C1 (single isomer, unassigned) [Compound 1337]",< 50 nM,< 50 nM,< 100 nM,< 100 nM,< 50 nM,,,< 1000 nM,B (an IC50 ratio greater than or equal to 3 fold but lower than 10 fold),
"CCc1cc(NC(=O)C(=O)N2C[C@@H](C)CC[C@@H]2c2ccc(N3CCOC4(CN(C)C4)C3)cc2)cnc1N (single isomer, unassigned) [Compound 1339]",50 to 500 nM,< 50 nM,100 to 1000 nM,< 100 nM,< 50 nM,,,< 1000 nM,A (an IC50 ratio greater than or equal to 10 fold),
"COc1ncc(NC(=O)C(=O)N2C[C@@H](C)[C@@H](OC)C[C@@H]2c2ccc3scnc3c2)cc1C(N)=O (single isomer, unassigned) [Compound 1344]",> 500 nM,> 500 nM,> 1000 nM,100 to 1000 nM,> 500 nM,,,1000 to 10000 nM,,
"Cc1cc(NC(=O)C(=O)N2C[C@@H](C)CC[C@@H]2c2cc(F)c3[nH]ncc3c2)cnc1N (single isomer, unassigned) [Compound 1350]",50 to 500 nM,< 50 nM,100 to 1000 nM,< 100 nM,< 50 nM,,,< 1000 nM,A (an IC50 ratio greater than or equal to 10 fold),

# Further lines, with some results ahead:
IC50 [1],IC50 [2],"IC50 [3, 7]","IC50 [4, 7]",IC50 [6],IC50 ([3]; SDMA in-cell western),IC50 ([4]; SDMA in-cell western),SMILES,"IC50 ([5]; Homo sapiens, HAP1, viability)",MTAP intact/deleted ratio ([4]; SDMA in-cell western),IC50 ([5]; viability)
< 50 nM,< 50 nM,< 100 nM,< 100 nM,< 50 nM,,,"Cc1cc(NC(=O)C(=O)N2C[C@H](C)[C@H](OC(C)C)C[C@H]2c2ccccc2)cnc1N (single isomer, unassigned) [Compound 1351]",< 1000 nM,B (an IC50 ratio greater than or equal to 3 fold but lower than 10 fold),
50 to 500 nM,< 50 nM,,,< 50 nM,100 to 1000 nM,< 100 nM,"CCc1cc(NC(=O)C(=O)N2C[C@@H](C)CC[C@@H]2c2cccc([C@H]3CCCN(C)C3)c2)cnc1N (single isomer, unassigned) [Compound 1353]",,A (an IC50 ratio greater than or equal to 10 fold),< 1000 nM
50 to 500 nM,< 50 nM,< 100 nM,< 100 nM,50 to 500 nM,,,"CCc1cc(NC(=O)C(=O)N2C[C@H](C)C(F)(F)C[C@H]2c2ccc3[nH]ncc3c2)cnc1N (single isomer, unassigned) [Compound 1357, N-(6-amino-5-ethylpyridin-3-yl)-2-(4,4-difluoro-2-(1H-indazol-5-yl)-5-methylpiperidin-1-yl)-2-oxoacetamide]",< 1000 nM,A (an IC50 ratio greater than or equal to 10 fold),
50 to 500 nM,< 50 nM,< 100 nM,< 100 nM,< 50 nM,,,"Cc1cc(NC(=O)C(=O)N2C[C@H](C)CC[C@H]2c2ccc(CCN(C)C)cc2)cnc1N (single isomer, unassigned) [Compound 1358]",< 1000 nM,A (an IC50 ratio greater than or equal to 10 fold),
